Key:
Experiment in all cases: relative viability (nuclei count vs DMSO), 5 days (fraction); higher = more cells survive
[1] = tested on: NCI-H3122
Procedure, shortened: (§1)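 Lung cancer cell lines in 1536-well plates got either a single drug or a fixed anchor-drug dose together with five library-drug doses (not always all listed) in √10 steps, by pin tool, on the day after seeding. Nuclei were counted after 5 days, and relative viability is the treated-to-vehicle ratio of nuclei counts. Values are medians of duplicate plates.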

[2] = tested on: SK-MES-1
Procedure, shortened: as §1

[3] = tested on: NCI-H1651
Procedure, shortened: as §1

[4] = tested on: SW 1573
Procedure, shortened: as §1

[5] = tested on: NCI-H2126
Procedure, shortened: as §1

[6] = tested on: LK-2
Procedure, shortened: as §1

[7] = tested on: NCI-H838
Procedure, shortened: as §1

[8] = tested on: NCI-H1792
Procedure, shortened: as §1

[9] = tested on: NCI-H661
Procedure, shortened: as §1

[10] = tested on: ABC-1
Procedure, shortened: as §1

[11] = tested on: NCI-H2023
Procedure, shortened: as §1

[12] = tested on: NCI-H1395
Procedure, shortened: as §1

[13] = tested on: HARA
Procedure, shortened: as §1

[14] = tested on: A-427
Procedure, shortened: as §1

[15] = tested on: LOU-NH91
Procedure, shortened: as §1

[16] = tested on: NCI-H460
Procedure, shortened: as §1

[17] = tested on: NCI-H1734
Procedure, shortened: as §1

[18] = tested on: COR-L23
Procedure, shortened: as §1

[19] = tested on: LCLC-97TM1
Procedure, shortened: as §1

[20] = tested on: NCI-H23
Procedure, shortened: as §1

[21] = tested on: LU99A
Procedure, shortened: as §1

[22] = tested on: NCI-H1975
Procedure, shortened: as §1

Cc1cn(-c2cc(NC(=O)c3ccc(C)c(Nc4nccc(-c5cccnc5)n4)c3)cc(C(F)(F)F)c2)cn1 [Nilotinib] + CS(=O)(=O)CCNCc1ccc(-c2ccc3ncnc(Nc4ccc(OCc5cccc(F)c5)c(Cl)c4)c3c2)o1 [Lapatinib] (partner 2 µM)
relative viability ([1]; first compound 0.001 µM): 0.988
relative viability ([1]; first compound 0.003162 µM): 1.07
relative viability ([1]; first compound 0.01 µM): 0.991
relative viability ([1]; first compound 0.03162 µM): 1.01
relative viability ([1]; first compound 0.1 µM): 0.98
relative viability ([2]; first compound 0.003162 µM): 0.663
relative viability ([2]; first compound 0.01 µM): 0.665
relative viability ([2]; first compound 0.03162 µM): 0.541
relative viability ([2]; first compound 0.1 µM): 0.557
relative viability ([3]; first compound 0.001 µM): 0.815
relative viability ([3]; first compound 0.003162 µM): 0.803
relative viability ([3]; first compound 0.01 µM): 1.06
relative viability ([3]; first compound 0.03162 µM): 0.737
relative viability ([3]; first compound 0.1 µM): 0.359
relative viability ([4]; first compound 0.003162 µM): 1.26
relative viability ([4]; first compound 0.01 µM): 1.17
relative viability ([4]; first compound 0.03162 µM): 1.1
relative viability ([4]; first compound 0.1 µM): 1.27
relative viability ([5]; first compound 0.001 µM): 0.729
relative viability ([5]; first compound 0.003162 µM): 0.813
relative viability ([5]; first compound 0.01 µM): 0.664
relative viability ([5]; first compound 0.03162 µM): 0.858
relative viability ([5]; first compound 0.1 µM): 0.507
relative viability ([6]; first compound 0.001 µM): 0.854
relative viability ([6]; first compound 0.003162 µM): 0.754
relative viability ([6]; first compound 0.01 µM): 1.05
relative viability ([6]; first compound 0.03162 µM): 0.875
relative viability ([6]; first compound 0.1 µM): 0.822
relative viability ([7]; first compound 0.001 µM): 0.927
relative viability ([7]; first compound 0.003162 µM): 1.02
relative viability ([7]; first compound 0.01 µM): 0.925
relative viability ([7]; first compound 0.03162 µM): 0.817
relative viability ([7]; first compound 0.1 µM): 0.609
relative viability ([8]; first compound 0.001 µM): 0.899
relative viability ([8]; first compound 0.01 µM): 1.12
relative viability ([8]; first compound 0.1 µM): 1.24
relative viability ([9]; first compound 0.001 µM): 0.446
relative viability ([9]; first compound 0.003162 µM): 0.445
relative viability ([9]; first compound 0.01 µM): 0.549
relative viability ([9]; first compound 0.03162 µM): 0.42
relative viability ([9]; first compound 0.1 µM): 0.436
relative viability ([10]; first compound 0.001 µM): 0.925
relative viability ([10]; first compound 0.003162 µM): 1.09
relative viability ([10]; first compound 0.01 µM): 1.35
relative viability ([10]; first compound 0.03162 µM): 0.955
relative viability ([10]; first compound 0.1 µM): 0.952
relative viability ([11]; first compound 0.001 µM): 0.702
relative viability ([11]; first compound 0.003162 µM): 0.611
relative viability ([11]; first compound 0.01 µM): 0.739
relative viability ([11]; first compound 0.03162 µM): 0.775
relative viability ([11]; first compound 0.1 µM): 0.15
relative viability ([12]; first compound 0.001 µM): 1.02
relative viability ([12]; first compound 0.003162 µM): 0.575
relative viability ([12]; first compound 0.01 µM): 0.9
relative viability ([12]; first compound 0.03162 µM): 1.14
relative viability ([12]; first compound 0.1 µM): 0.596
relative viability ([13]; first compound 0.001 µM): 0.685
relative viability ([13]; first compound 0.003162 µM): 0.777
relative viability ([13]; first compound 0.01 µM): 0.686
relative viability ([13]; first compound 0.03162 µM): 0.8
relative viability ([13]; first compound 0.1 µM): 0.454
relative viability ([14]; first compound 0.001 µM): 1.05
relative viability ([14]; first compound 0.01 µM): 1.13
relative viability ([14]; first compound 0.03162 µM): 1.08
relative viability ([14]; first compound 0.1 µM): 0.211
relative viability ([15]; first compound 0.001 µM): 0.76
relative viability ([15]; first compound 0.003162 µM): 0.679
relative viability ([15]; first compound 0.01 µM): 0.649
relative viability ([15]; first compound 0.03162 µM): 0.761
relative viability ([15]; first compound 0.1 µM): 0.747
relative viability ([16]; first compound 0.001 µM): 0.521
relative viability ([16]; first compound 0.03162 µM): 0.378
relative viability ([16]; first compound 0.1 µM): 0.0571
relative viability ([17]; first compound 0.001 µM): 1
relative viability ([17]; first compound 0.003162 µM): 1.14
relative viability ([17]; first compound 0.01 µM): 1.27
relative viability ([17]; first compound 0.03162 µM): 0.808
relative viability ([17]; first compound 0.1 µM): 0.517
relative viability ([18]; first compound 0.001 µM): 0.834
relative viability ([18]; first compound 0.003162 µM): 1.53
relative viability ([18]; first compound 0.01 µM): 1.7
relative viability ([18]; first compound 0.03162 µM): 0.822
relative viability ([18]; first compound 0.1 µM): 0.825
relative viability ([19]; first compound 0.001 µM): 0.777
relative viability ([19]; first compound 0.003162 µM): 1.05
relative viability ([19]; first compound 0.01 µM): 1.12
relative viability ([19]; first compound 0.03162 µM): 1.16
relative viability ([19]; first compound 0.1 µM): 0.268
relative viability ([20]; first compound 0.001 µM): 1.01
relative viability ([20]; first compound 0.003162 µM): 1.13
relative viability ([20]; first compound 0.01 µM): 1.4
relative viability ([20]; first compound 0.03162 µM): 0.87
relative viability ([20]; first compound 0.1 µM): 0.704
relative viability ([21]; first compound 0.001 µM): 0.954
relative viability ([21]; first compound 0.003162 µM): 0.924
relative viability ([21]; first compound 0.01 µM): 0.921
relative viability ([21]; first compound 0.03162 µM): 0.775
relative viability ([21]; first compound 0.1 µM): 0.153
relative viability ([22]; first compound 0.001 µM): 0.859
relative viability ([22]; first compound 0.003162 µM): 1.18
relative viability ([22]; first compound 0.01 µM): 0.894
relative viability ([22]; first compound 0.03162 µM): 0.658
relative viability ([22]; first compound 0.1 µM): 0.433
